The structures appear in SMILES notation.

The results in this text go back to US10954214B2 (Janssen Pharmaceutica NV, priority 2016, dated 2021).

The test system of one assay is OCI-Ly3 cells. Kind of assay: 4-day proliferation assay, OCI-Ly3. The class given is cell-based, human. Conditions: Homo sapiens, 96 h, 4 days incubation, CellTiterGLO, read-out: Anti-proliferation: OCI-LY-3 IC50. The gist of the method:
(§1)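 TMD8 and OCI-Ly3 cells were seeded at 10,000 per well and grown 4 days at 37° C, 5% CO2 without beta-mercaptoethanol. Viability was read by CellTiter-Glo luminescence. IC50 and Hill slope were fitted relative to the low control median.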

Assay [1] concerns IL6 secretion by OCI-LY3 ABC-DLBCL cells. Kind of assay: Human IL6 Mesoscale assay (OCI-LY3). The class given is cell-based. Conditions: Homo sapiens, 24 h. In a few lines: (§2)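 Read-out: MSD electrochemiluminescence of IL6/IL10 in supernatants. Cells (100,000/well, no beta-mercaptoethanol) were exposed to compounds at 15 μM down to 58.6 nM, 1:2 dilutions, for 24 h at 37° C, 5% CO2. Normalised between DMSO (high) and RN486 (low) controls.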

Assay [2] has as its target full-length MALT1 protein (Strep-MALT1(1-824)-His) (Homo sapiens (Human), UniProt Q9UDY8). The experiment in a line: MALT1 Biochemical Protease Assay (Ac-LRSR-AMC substrate). To be noted: 10 nM FL MALT1, 200 μM Ac-LRSR-AMC, 4 h at RT; read-out: MALT1_Biochemical activity (Ac-LRSR-amc) IC50. The gist of the method:
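Full-length MALT1 pre-incubated with compounds (30 μM to 0.5 nM, 11 threefold steps) for 50 min at RT. After Ac-LRSR-AMC was added, the reaction ran 4 h at RT and AMC fluorescence was read. IC50 and Hill slope from curve fitting against no-enzyme and no-compound controls.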

In the next assay the test system is TMD8 cells. The experiment in a line: 4-day proliferation assay, TMD8. In kind it is cell-based. Conditions: Homo sapiens, 96 h, 4 days incubation, CellTiterGLO, read-out: Anti-proliferation: TMD-8 IC50. The gist of the method:
as §1
A general note: Cellular ATP, detected with luciferase, serves as a proxy for viable cell number.

Assay [3] concerns IL10 secretion by OCI-LY3 ABC-DLBCL cells. The experiment in a line: Human IL10 Mesoscale assay (OCI-LY3). The class given is cell-based. To be noted: Homo sapiens, 24 h. In a few lines: as §2

full-length MALT1 protein (Strep-MALT1(1-824)-His), sequence (Q9UDY8 whole entry): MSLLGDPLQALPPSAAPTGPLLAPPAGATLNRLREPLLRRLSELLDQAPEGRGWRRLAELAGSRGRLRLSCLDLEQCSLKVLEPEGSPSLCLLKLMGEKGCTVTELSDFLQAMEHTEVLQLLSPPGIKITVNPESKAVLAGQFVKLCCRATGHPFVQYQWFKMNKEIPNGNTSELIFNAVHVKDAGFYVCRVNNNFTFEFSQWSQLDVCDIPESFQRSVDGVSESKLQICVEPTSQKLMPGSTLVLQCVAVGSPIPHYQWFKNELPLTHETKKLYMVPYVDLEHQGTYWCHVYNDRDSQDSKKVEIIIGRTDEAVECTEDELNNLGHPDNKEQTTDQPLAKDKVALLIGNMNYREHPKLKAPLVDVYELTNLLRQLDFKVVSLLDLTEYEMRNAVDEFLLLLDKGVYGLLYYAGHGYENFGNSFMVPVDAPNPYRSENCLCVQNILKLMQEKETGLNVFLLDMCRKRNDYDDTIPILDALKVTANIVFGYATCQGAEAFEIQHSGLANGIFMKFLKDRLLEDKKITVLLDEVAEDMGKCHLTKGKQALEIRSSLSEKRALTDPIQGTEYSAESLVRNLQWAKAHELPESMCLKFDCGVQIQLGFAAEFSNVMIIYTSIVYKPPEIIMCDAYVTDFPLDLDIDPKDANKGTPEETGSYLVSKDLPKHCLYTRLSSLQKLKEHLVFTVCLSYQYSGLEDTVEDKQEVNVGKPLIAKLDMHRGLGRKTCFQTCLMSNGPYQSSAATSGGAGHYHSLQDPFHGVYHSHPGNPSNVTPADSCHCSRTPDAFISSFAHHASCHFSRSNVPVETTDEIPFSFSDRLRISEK

In the case of `N#Cc1cc(NC(=O)c2cnn(-c3cccc4c(F)cccc34)c2C(F)(F)F)cnc1-n1nccn1` [Cpd 122, N-(5-cyano-6-(2H-1,2,3-triazol-2-yl)pyridin-3-yl)-1-(5-fluoronaphthalen-1-yl)-5-(trifluoromethyl)-1H-pyrazole-4-carboxamide], the IC50 with OCI-Ly3 cells amounted to 132 nM; in assay [1], 52 nM; in assay [2], 13 nM; in the assay with TMD8 cells, 162 nM; in assay [3], 56 nM.
On to `Cc1cnn(-c2ncc(NC(=O)c3cnn(-c4cccc5ncccc45)c3C(F)(F)F)cc2Cl)n1` [Cpd 125, N-(5-chloro-6-(4-methyl-2H-1,2,3-triazol-2-yl)pyridin-3-yl)-1-(quinolin-5-yl)-5-(trifluoromethyl)-1H-pyrazole-4-carboxamide], for which the IC50 in the assay on OCI-Ly3 cells stood at 285 nM; in assay [1] it was 46 nM; in assay [2], 13 nM; in the assay with TMD8 cells, 1020 nM; in assay [3], 24 nM.
On the same counts, the results for `O=C(Nc1cnc(-c2ncco2)c(Cl)c1)c1cnn(-c2cccc3c(=O)[nH]ccc23)c1C(F)(F)F` [Cpd 127, N-(5-chloro-6-(oxazol-2-yl)pyridin-3-yl)-1-(1-oxo-1,2-dihydroisoquinolin-5-yl)-5-(trifluoromethyl)-1H-pyrazole-4-carboxamide] are 432 nM, 29 nM, 15 nM, 11200 nM and 26 nM.
On the same counts, the results for `N#Cc1cc(NC(=O)c2cnn(-c3ccc(N)c4ccccc34)c2C(F)(F)F)cnc1-n1nccn1` [Cpd 132, 1-(4-aminonaphthalen-1-yl)-N-(5-cyano-6-(2H-1,2,3-triazol-2-yl)pyridin-3-yl)-5-(trifluoromethyl)-1H-pyrazole-4-carboxamide] are 571 nM, 141 nM, 19 nM, 7760 nM and 95 nM.
On the same counts, the results for `O=C(Nc1cnc(-n2cc(CO)cn2)c(Cl)c1)c1cnn(-c2cccc3ncccc23)c1C(F)(F)F` [Cpd 135, N-(5-chloro-6-(4-(hydroxymethyl)-1H-pyrazol-1-yl)pyridin-3-yl)-1-(quinolin-5-yl)-5-(trifluoromethyl)-1H-pyrazole-4-carboxamide] are 1310 nM, 98 nM, 21 nM, 3090 nM and 83 nM.
On to `O=C(Nc1cnc(-n2nccn2)c(Br)c1)c1cnn(-c2cccc3ncccc23)c1C(F)(F)F` [Cpd 139, N-(5-bromo-6-(2H-1,2,3-triazol-2-yl)pyridin-3-yl)-1-(quinolin-5-yl)-5-(trifluoromethyl)-1H-pyrazole-4-carboxamide], for which the IC50 was determined as 275 nM in the assay with OCI-Ly3 cells; 50 nM in assay [1]; 23 nM in assay [2]; 1410 nM in the assay with TMD8 cells; 36 nM in assay [3].
On the same counts, the results for `Nc1cnn(-c2ncc(NC(=O)c3cnn(-c4cccc5ncccc45)c3C(F)(F)F)cc2Cl)n1` [Cpd 154, N-(6-(4-amino-2H-1,2,3-triazol-2-yl)-5-chloropyridin-3-yl)-1-(quinolin-5-yl)-5-(trifluoromethyl)-1H-pyrazole-4-carboxamide] are 395 nM, 98 nM, 19 nM, 2240 nM and 95 nM.
On the same counts, the results for `Nc1ncc(-n2ncc(C(=O)Nc3cnc(-n4nccn4)c(Cl)c3)c2C(F)(F)F)c2ccccc12` [Cpd 155, 1-(1-aminoisoquinolin-4-yl)-N-(5-chloro-6-(2H-1,2,3-triazol-2-yl)pyridin-3-yl)-5-(trifluoromethyl)-1H-pyrazole-4-carboxamide] are 302 nM, 93 nM, 19 nM, 1380 nM and 68 nM.
Take `Cn1ccc(-c2ncc(NC(=O)c3cnn(-c4cccc5c(=O)[nH]ccc45)c3C(F)(F)F)cc2Cl)n1` [Cpd 157, N-(5-chloro-6-(1-methyl-1H-pyrazol-3-yl)pyridin-3-yl)-1-(1-oxo-1,2-dihydroisoquinolin-5-yl)-5-(trifluoromethyl)-1H-pyrazole-4-carboxamide]: the IC50 was 1270 nM in the assay with OCI-Ly3 cells; 1780 nM in assay [1]; 23 nM in assay [2]; 7080 nM in the assay on TMD8 cells; 912 nM in assay [3].
For `O=C(Nc1cncc(C(F)(F)F)c1)c1cnn(-c2cccc3c(=O)[nH]ccc23)c1C(F)(F)F` [Cpd 167, 1-(1-oxo-1,2-dihydroisoquinolin-5-yl)-5-(trifluoromethyl)-N-(5-(trifluoromethyl)pyridin-3-yl)-1H-pyrazole-4-carboxamide], the IC50 came to 1020 nM in the assay with OCI-Ly3 cells; 191 nM in assay [1]; 110 nM in assay [2]; 4570 nM in the assay on TMD8 cells; 174 nM in assay [3].
For `Cc1nc(-c2ccn(C)n2)c(Cl)cc1NC(=O)c1cnn(-c2cccc3c(=O)[nH]ccc23)c1C(F)(F)F` [Cpd 169, N-(5-chloro-2-methyl-6-(1-methyl-1H-pyrazol-3-yl)pyridin-3-yl)-1-(1-oxo-1,2-dihydroisoquinolin-5-yl)-5-(trifluoromethyl)-1H-pyrazole-4-carboxamide], the IC50 in the assay with OCI-Ly3 cells is 1750 nM; in assay [1] it was 166 nM; in assay [2] it was 72 nM; in the assay on TMD8 cells, 8910 nM; in assay [3], 182 nM.
On the same counts, the results for `O=C(Nc1cc(Cl)c(-n2nccn2)cc1F)c1cnn(-c2cccc3c(=O)[nH]ccc23)c1C(F)(F)F` [Cpd 172, N-(5-chloro-2-fluoro-4-(2H-1,2,3-triazol-2-yl)phenyl)-1-(1-oxo-1,2-dihydroisoquinolin-5-yl)-5-(trifluoromethyl)-1H-pyrazole-4-carboxamide] are 504 nM, 204 nM, 69 nM, 4790 nM and 158 nM.
As to `Cc1nc(-n2nccn2)c(C#N)cc1NC(=O)c1cnn(-c2cccc3c(=O)[nH]ccc23)c1C(F)(F)F` [Cpd 176, N-(5-cyano-2-methyl-6-(2H-1,2,3-triazol-2-yl)pyridin-3-yl)-1-(1-oxo-1,2-dihydroisoquinolin-5-yl)-5-(trifluoromethyl)-1H-pyrazole-4-carboxamide], the IC50 in the assay on OCI-Ly3 cells is 1590 nM; in assay [1], 117 nM; in assay [2], 45 nM; in the assay on TMD8 cells, more than 20000 nM; in assay [3], 95 nM.
On the same counts, the results for `Nc1cnnn1-c1ncc(NC(=O)c2cnn(-c3cccc4c(=O)[nH]ccc34)c2C(F)(F)F)cc1Cl` [Cpd 178, N-(6-(5-amino-1H-1,2,3-triazol-1-yl)-5-chloropyridin-3-yl)-1-(1-oxo-1,2-dihydroisoquinolin-5-yl)-5-(trifluoromethyl)-1H-pyrazole-4-carboxamide] are 2800 nM, 589 nM, 42 nM, more than 20000 nM and 427 nM.
